Reference: patent publication US20260078130A1, “NAMPT MODULATORS, PREPARATIONS, AND USES THEREOF” (SIRONAX LTD., priority 2022, published 2026)
Read-outs that look alike come from different tables or passages of the source.

Key:
[1] = target: T1, human enzyme NAMPT (full length) (Homo sapiens, UniProt P43490); experiment: NMN fluorescence biochemical assay (stimulation of NMN synthesis by NAMPT); settings: for EC50: concentration giving half-maximal activation, read-out: Enzymatic EC50; for Enzymatic Emax: fold change of maximal activation compared to DMSO
T1 construct: human enzyme NAMPT (full length)
Summary of the method: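 Full-length human NAMPT (100 nM) was preincubated 15 min at 37 °C with compound in 50 mM Tris-HCl pH 7.5, 10 mM MgCl2, 2 mM DTT, then reacted 1 h at 37 °C with 50 μM NAM, 100 μM PRPP, 4 mM ATP (stated solution concentrations). NMN was derivatised with acetophenone/KOH then formic acid and read at Ex/Em 382/445 nm; EC50 and Emax (fold over DMSO) reported.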

[2] = tested on: endogenous NAMPT in U2OS cells; experiment: Cellular NAD+ modulation assay (NAD/NADH-Glo, U2OS cells); type: cell-based; settings: Homo sapiens; for maximal fold induction: read-out: Cellular Emax
Summary of the method: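 Endogenous NAMPT stimulation in U2OS cells treated with compound dilution series for 24 h at 37 °C. Cells lysed with DTAB base, acid-treated 15 min at 60 °C, neutralized, NAD+ read by NAD/NADH-Glo luminescence after 40 min at room temperature. EC50 and Emax (fold over DMSO) derived.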

[3] = NMN fluorescence assay, purified human NAMPT 100 nM
[4] = 24 hours incubation, cellular NAD+
[5] = NMN synthesis by purified human NAMPT (100 nM)
[6] = 24 hours incubation with compound

T1 sequence (P43490 whole entry): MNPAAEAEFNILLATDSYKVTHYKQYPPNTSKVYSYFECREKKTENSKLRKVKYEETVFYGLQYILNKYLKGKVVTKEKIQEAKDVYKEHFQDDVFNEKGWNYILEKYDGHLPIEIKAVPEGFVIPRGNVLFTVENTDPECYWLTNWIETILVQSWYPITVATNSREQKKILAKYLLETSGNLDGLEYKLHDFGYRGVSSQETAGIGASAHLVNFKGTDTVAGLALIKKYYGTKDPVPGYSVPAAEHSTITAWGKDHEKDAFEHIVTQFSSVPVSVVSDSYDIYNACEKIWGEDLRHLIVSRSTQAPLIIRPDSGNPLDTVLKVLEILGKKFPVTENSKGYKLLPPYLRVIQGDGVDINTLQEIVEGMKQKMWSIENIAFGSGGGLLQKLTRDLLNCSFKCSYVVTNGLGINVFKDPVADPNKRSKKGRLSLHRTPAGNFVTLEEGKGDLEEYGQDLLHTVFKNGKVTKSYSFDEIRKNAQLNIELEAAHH

Row | Compound | EC50 [1, 3] [µM] | Enzymatic Emax [1] | EC50 [2, 4] [µM] | EC50 [1, 5] [µM] | EC50 [2, 6] [µM] | maximal fold induction [2, 4] | maximal fold induction [2, 6]
1 | CC1c2cc(NC3CC4(CNC4)C3)ccc2C(=O)N1Cc1ccc2[nH]c(=O)oc2c1 (centres unmarked) [Compound 79, 6-((5-((2-azaspiro[3.3]heptan-6-yl)amino)-3-methyl-1-oxoisoindolin-2-yl)methyl)benzo[d]oxazol-2(3H)-one] |  | A (A>3) |  | ≥ 5 | < 0.5 |  | ≤ 1.2
2 | Cn1ncc(Cl)c1CC1c2ccccc2C2(CC2)N1CC1CC2(CNC(=O)O2)C1 (centres unmarked) [Compound 539, 2-((3′-((4-chloro-1-methyl-1H-pyrazol-5-yl)methyl)spiro[cyclopropane-1,1′-isoindolin]-2′-yl)methyl)-5-oxa-7-azaspiro[3.4]octan-6-one] | ≥ 5 | B (3≥B>2) | 0.5 to 5 |  |  | 1.2 to 1.5 | 
3 | C/C(=C\CN1C(=O)c2ccccc2C1Cc1ncccc1Br)c1c[nH]nn1 (centres unmarked) [Compound 425, (E)-2-(3-(1H-1,2,3-triazol-4-yl)but-2-en-1-yl)-3-((3-bromopyridin-2-yl)methyl) isoindolin-1-one] | < 0.5 | B (3≥B>2) | < 0.5 |  |  | > 1.5 | 
4 | COc1ccc(CN2C(=O)c3ccccc3C2Cc2ncccc2Br)cc1 (centres unmarked) [Compound 415, 3-((3-bromopyridin-2-yl)methyl)-2-(4-methoxybenzyl)isoindolin-1-one] | 0.5 to 5 | B (3≥B>2) | < 0.5 |  |  | 1.2 to 1.5 | 
5 | Cc1scnc1CC1c2ccccc2C(=O)N1Cc1ccc2[nH]c(=O)oc2c1 (centres unmarked) [Compound 217, 6-((1-((5-methylthiazol-4-yl)methyl)-3-oxoisoindolin-2-yl)methyl)benzo[d]oxazol-2(3H)-one] |  | A (A>3) |  | 0.5 to 5 | 0.5 to 5 |  | > 1.5
6 | COc1nn(C)c(CC2c3ccccc3C(=O)N2CC2CC3(CNC(=O)O3)C2)c1Cl (centres unmarked) [Compound 451, 2-((1-((4-chloro-3-methoxy-1-methyl-1H-pyrazol-5-yl)methyl)-3-oxoisoindolin-2-yl)methyl)-5-oxa-7-azaspiro[3.4]octan-6-one] | < 0.5 | B (3≥B>2) | < 0.5 |  |  | > 1.5 | 
7 | CC(=O)Nc1ccc(CN2Cc3ccccc3C2=O)cc1 [Compound 104, N-(4-((1-oxoisoindolin-2-yl)methyl)phenyl)acetamide] |  | B (3≥B>2) |  | ≥ 5 | 5 to 50 |  | > 1.5
8 | COc1ccc(CN2C(=O)c3ccc(Br)cc3C2Cc2c(Cl)cnn2C)cn1 (centres unmarked) [Compound 622, 5-bromo-3-((4-chloro-1-methyl-1H-pyrazol-5-yl)methyl)-2-((6-methoxypyridin-3-yl)methyl)isoindolin-1-one] | ≥ 5 | A (A>3) | 0.5 to 5 |  |  | > 1.5 | 
9 | Cn1ncc(Cl)c1CC1c2ccccc2C(C)(C)N1CC1CC(C(N)=O)C1 (centres unmarked) [Compound 607, 3-((3-((4-chloro-1-methyl-1H-pyrazol-5-yl)methyl)-1,1-dimethylisoindolin-2-yl)methyl)cyclobutane-1-carboxamide] | ≥ 5 | C (2≥C) | 5 to 50 |  |  | 1.2 to 1.5 | 
10 | N#Cc1cccc(CC2c3ccccc3C(=O)N2Cc2ccc3[nH]c(=O)oc3c2)c1 (centres unmarked) [Compound 131, 3-((3-oxo-2-((2-oxo-2,3-dihydrobenzo[d]oxazol-6-yl)methyl)isoindolin-1-yl)methyl) benzonitrile] |  | A (A>3) |  | 0.5 to 5 | 0.5 to 5 |  | > 1.5
11 | O=C1c2ccc(Br)cc2CN1Cc1ccc2[nH]c(=O)oc2c1 [Compound 299, 6-((5-bromo-1-oxoisoindolin-2-yl)methyl)benzo[d]oxazol-2(3H)-one] |  | C (2≥C) |  | 0.5 to 5 | 0.5 to 5 |  | 1.2 to 1.5

Continued, in another order:

Row | EC50 [1, 3] [µM] | Enzymatic Emax [1] | EC50 [2, 4] [µM] | EC50 [1, 5] [µM] | EC50 [2, 6] [µM] | Compound | maximal fold induction [2, 4] | maximal fold induction [2, 6]
12 | 0.5 to 5 | B (3≥B>2) | 5 to 50 |  |  | Cn1ncc(Cl)c1CC1c2ccccc2C(C)(C)N1Cc1cnc(O)s1 (centres unmarked) [Compound 614, 5-((3-((4-chloro-1-methyl-1H-pyrazol-5-yl)methyl)-1,1-dimethylisoindolin-2-yl)methyl)thiazol-2-ol] | ≤ 1.2 | 
13 | < 0.5 | B (3≥B>2) | < 0.5 |  |  | Cn1nc(OC(F)F)c(Cl)c1CC1c2ccccc2C(=O)N1Cc1ccc2[nH]nnc2c1 (centres unmarked) [Compound 397, 2-((1H-benzo[d][1,2,3]triazol-5-yl)methyl)-3-((4-chloro-3-(difluoromethoxy)-1-methyl-1H-pyrazol-5-yl)methyl)isoindolin-1-one] | > 1.5 | 
14 |  | A (A>3) |  | ≥ 5 | 5 to 50 | O=C1c2ccccc2C(Cc2ncco2)N1Cc1ccc2[nH]c(=O)oc2c1 (centres unmarked) [Compound 150, 6-((1-(oxazol-2-ylmethyl)-3-oxoisoindolin-2-yl)methyl)benzo[d]oxazol-2(3H)-one] |  | > 1.5
15 | 0.5 to 5 | B (3≥B>2) | < 0.5 |  |  | Cc1ncnc(C#N)c1CC1c2ccccc2C(=O)N1CC1CC2(CNC(=O)O2)C1 (centres unmarked) [Compound 491, 6-methyl-5-((3-oxo-2-((6-oxo-5-oxa-7-azaspiro[3.4]octan-2-yl)methyl)isoindolin-1-yl)methyl)pyrimidine-4-carbonitrile] | > 1.5 | 
16 | 0.5 to 5 | A (A>3) | < 0.5 |  |  | COc1ccc(CN2C(=O)c3ccccc3C2Cc2c(Cl)ccc(=O)n2C)cc1 (centres unmarked) [Compound 589, 3-((3-chloro-1-methyl-6-oxo-1,6-dihydropyridin-2-yl)methyl)-2-(4-methoxybenzyl)isoindolin-1-one] | > 1.5 | 
17 |  | A (A>3) |  | ≥ 5 | 5 to 50 | NC(=O)c1ccc2c(c1)C(=O)N(Cc1ccc(O)cc1)C2=O [Compound 38, 2-(4-hydroxybenzyl)-1,3-dioxoisoindoline-5-carboxamide] |  | ≤ 1.2
18 | 0.5 to 5 | C (2≥C) | 0.5 to 5 |  |  | COc1ccc(CN2C(=O)c3ccccc3C2Cc2c(Cl)cnn2C)cc1Cl (centres unmarked) [Compound 544, 3-((4-chloro-1-methyl-1H-pyrazol-5-yl)methyl)-2-(3-chloro-4-methoxybenzyl)isoindolin-1-one] | 1.2 to 1.5 | 
19 | 0.5 to 5 | B (3≥B>2) | 5 to 50 |  |  | CN1CC(c2ccc3c(c2)C(Cc2c(Cl)cnn2C)N(Cc2ccc4[nH]nnc4c2)C3=O)C1 (centres unmarked) [Compound 385, 2-((1H-benzo[d][1,2,3]triazol-5-yl)methyl)-3-((4-chloro-1-methyl-1H-pyrazol-5-yl)methyl)-5-(1-methylazetidin-3-yl)isoindolin-1-one] | > 1.5 | 
20 |  | A (A>3) |  | 0.5 to 5 | 0.5 to 5 | O=C1c2ccccc2C(Cc2ncccc2C(F)F)N1Cc1ccc2[nH]c(=O)oc2c1 (centres unmarked) [Compound 191, 6-((1-((3-(difluoromethyl)pyridin-2-yl)methyl)-3-oxoisoindolin-2-yl)methyl)benzo[d]oxazol-2(3H)-one] |  | > 1.5
